Marks after values point to notes of the source that are not given here.
Assays:
[1] = test system: rats having hyperuricemia induced by potassium oxonate; assay: Serum uric acid content of rats having hyperuricemia induced by potassium oxonate (tungstic acid method); assay type: in vivo, rat; conditions: allopurinol group 50 mg·kg^−1; p<0.01; day not given
Description: (§1) 180 SD rats (SPF grade, male, 200±20 (g)) were provided by Laboratory Animals Centre, Guangzhou University of Chinese Medicine (License Number: SCXK(Yue)2013-0020). Reagents: allopurinol tablets (Guangdong P.D. Pharmaceutical Co., Ltd., Production batch No. 20130302); potassium oxonate (Shandong Zhongke Taidou Chemical Co., Ltd., Batch No. 120901); sodium carboxymethyl cellulose (Shanghai Celluloid Factory, Product Standard No. GB2760); uric acid assay kit (NanJing Jiancheng Bioengineering Institute, Production batch No. 20130529).
(§2) Animal grouping and modeling: 165 normal healthy SD male rats were obtained and randomly divided into normal control group (15 rats) and model group (150 rats). […] Those rats having a uric acid content of greater than 110 μmol·L^−1 were determined to be successful models. […] On 10th and 20th day after treatment with the above-described peptide samples, 50 min after the last administration, the rats were anaesthetized with 3% pentobarbitol sodium (i.p., 30 mg·kg^−1), and the blood (0.5 ml) was collected from conjunctiva and the serum uric acid content was determined. On 30th day after treatment with antigout peptides, the rats were anaesthetized with 3% pentobarbitol sodium, and 5 ml of blood was collected from coeliac artery and the content of serum creatinine and urea nitrogen were determined at the same time in addition to the serum uric acid content. […]

[2] = test system: rats having hyperuricemia induced by potassium oxonate; assay: Serum creatinine content of rats having hyperuricemia induced by potassium oxonate (picric acid method); assay type: in vivo, rat; conditions: administration for 30 d, extracts 200 mg·kg^−1, allopurinol 50 mg·kg^−1, intragastric, x ± s
Description: as §1, §2

Q: How did the “Effect on serum uric acid content versus model group (in words)” value [1] turn out when `Oc1ncnc2[nH]ncc12` [Allopurinol, allopurinol] was run?
A: Its value is “very significant effect in the reduction of the serum uric acid”.

Q: What about the “Creatinine (μmol/L)” value [2] of the same compound?
A: The value was 52.9 ± 10.8^b μmol/L.
